This is an account of results in US8822517B2, “Arylosulfonamides for the treatment of CNS diseases” (Adamed SP. Z O.O., priority 2010, dated 2014).

The target of assay [1] is T1, serotonine transporter (SERT) receptor (Homo sapiens, UniProt P31645).
T1 construct: expressed in transfected cells; host or cells: CHO cells
Description: Binding assay SERT (h), [3H]imipramine, CHO cells. The following applies: read-out: SERT [%]. A digest of the protocol: (§1)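 Test conc. 1×10^−6 M. Read-out by scintillation counting. Specific = total − nonspecific (excess cold ligand).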

For another assay, the target named is dopaminergic D2 receptor (Homo sapiens, UniProt P14416). Description: Binding assay D2S (h), [3H]methyl-spiperone, HEK-293 cells. The arrangement: expressed in transfected cells; host or cells: HEK-293 cells. The following applies: read-out: D2 [%]. In short, it runs like this: as §1
Assay [2] addresses serotoninergic 5-HT6 receptor (Homo sapiens, UniProt P50406). As to the kind of experiment: Binding assay 5-HT6 (h), [3H]LSD, CHO cells. The following applies: read-out: 5-HT6. More on the design: expressed in transfected cells; host or cells: CHO cells. In short, it runs like this: as §1
Assay [3] has as its target serotoninergic 5-HT7 receptor (Homo sapiens, UniProt P34969). Description: Binding assay 5-HT7 (h), [3H]LSD, CHO cells. More on the design: expressed in transfected cells; host or cells: CHO cells. The following applies: read-out: 5-HT7. In short, it runs like this:
as §1

For assay [4], the target named is serotoninergic 5-HT2A receptor (Homo sapiens, UniProt P28223). Description: Binding assay 5-HT2A (h), [3H]ketanserin, HEK-293 cells. The following applies: read-out: 5-HT2A. The arrangement: expressed in transfected cells; host or cells: HEK-293 cells. A digest of the protocol: as §1
The subject of another assay is adrenergic α1 receptor. Description: Binding assay α1 (non-selective), [3H]prazosin, rat cerebral cortex. The following applies: percent inhibition of control specific binding; compounds tested at 1×10^−6 M. A digest of the protocol: as §1
The target in another assay is dopaminergic D3 receptor (Homo sapiens, UniProt P35462). Description: Binding assay D3 (h), [3H]methyl-spiperone, CHO cells. The arrangement: expressed in transfected cells; host or cells: CHO cells. The following applies: read-out: D3 [%]. A digest of the protocol:
as §1

In assay [5] the target is T2, serotoninergic 5-HT1A receptor (Homo sapiens, UniProt P08908).
T2 sequence (P08908 1-422): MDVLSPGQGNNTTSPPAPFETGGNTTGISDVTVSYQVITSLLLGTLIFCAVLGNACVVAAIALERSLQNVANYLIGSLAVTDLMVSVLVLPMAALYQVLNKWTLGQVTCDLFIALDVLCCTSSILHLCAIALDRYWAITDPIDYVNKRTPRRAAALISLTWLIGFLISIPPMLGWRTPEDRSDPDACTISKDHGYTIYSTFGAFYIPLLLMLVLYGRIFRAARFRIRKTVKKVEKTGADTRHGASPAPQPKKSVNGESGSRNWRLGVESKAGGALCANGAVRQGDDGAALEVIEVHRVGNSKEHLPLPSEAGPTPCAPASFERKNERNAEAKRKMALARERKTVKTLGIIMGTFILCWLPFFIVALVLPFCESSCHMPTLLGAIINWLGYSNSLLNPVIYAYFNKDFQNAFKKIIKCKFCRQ
As to the kind of experiment: Binding assay 5-HT1A (h), [3H]8-OH-DPAT, HEK-293 cells. More on the design: expressed in transfected cells; host or cells: HEK-293 cells. The following applies: read-out: 5-HT1A. In short, it runs like this: as §1

T1 sequence (P31645 whole entry): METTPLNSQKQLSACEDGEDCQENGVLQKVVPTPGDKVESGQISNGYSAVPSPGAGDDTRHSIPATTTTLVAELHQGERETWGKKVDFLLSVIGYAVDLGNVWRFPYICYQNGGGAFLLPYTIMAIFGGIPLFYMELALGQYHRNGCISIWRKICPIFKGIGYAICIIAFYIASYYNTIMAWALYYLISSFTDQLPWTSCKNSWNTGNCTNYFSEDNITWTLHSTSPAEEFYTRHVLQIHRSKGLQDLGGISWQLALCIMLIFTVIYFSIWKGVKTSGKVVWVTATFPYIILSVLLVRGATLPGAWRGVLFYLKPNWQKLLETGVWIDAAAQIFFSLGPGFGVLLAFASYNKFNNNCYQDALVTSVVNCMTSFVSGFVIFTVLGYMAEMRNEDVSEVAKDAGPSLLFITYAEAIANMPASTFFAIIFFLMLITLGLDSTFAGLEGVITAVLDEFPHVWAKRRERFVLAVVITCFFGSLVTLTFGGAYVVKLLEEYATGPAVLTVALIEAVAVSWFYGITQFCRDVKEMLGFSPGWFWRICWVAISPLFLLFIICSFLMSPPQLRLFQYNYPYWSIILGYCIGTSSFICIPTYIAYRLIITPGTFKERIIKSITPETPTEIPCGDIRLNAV
serotoninergic 5-HT2A receptor, sequence (P28223 whole entry): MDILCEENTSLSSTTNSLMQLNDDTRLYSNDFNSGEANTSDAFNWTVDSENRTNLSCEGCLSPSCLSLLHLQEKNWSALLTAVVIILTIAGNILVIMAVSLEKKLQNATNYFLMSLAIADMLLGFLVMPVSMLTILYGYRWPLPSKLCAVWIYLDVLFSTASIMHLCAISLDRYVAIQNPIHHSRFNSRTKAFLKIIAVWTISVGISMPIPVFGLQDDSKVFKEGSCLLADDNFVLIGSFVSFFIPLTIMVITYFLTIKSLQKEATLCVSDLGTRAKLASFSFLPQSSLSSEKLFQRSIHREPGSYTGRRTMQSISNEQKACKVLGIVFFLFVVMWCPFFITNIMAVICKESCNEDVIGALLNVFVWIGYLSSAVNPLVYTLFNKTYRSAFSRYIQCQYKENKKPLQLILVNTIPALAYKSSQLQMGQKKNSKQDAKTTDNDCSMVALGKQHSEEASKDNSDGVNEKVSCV
serotoninergic 5-HT7 receptor, sequence (P34969 whole entry): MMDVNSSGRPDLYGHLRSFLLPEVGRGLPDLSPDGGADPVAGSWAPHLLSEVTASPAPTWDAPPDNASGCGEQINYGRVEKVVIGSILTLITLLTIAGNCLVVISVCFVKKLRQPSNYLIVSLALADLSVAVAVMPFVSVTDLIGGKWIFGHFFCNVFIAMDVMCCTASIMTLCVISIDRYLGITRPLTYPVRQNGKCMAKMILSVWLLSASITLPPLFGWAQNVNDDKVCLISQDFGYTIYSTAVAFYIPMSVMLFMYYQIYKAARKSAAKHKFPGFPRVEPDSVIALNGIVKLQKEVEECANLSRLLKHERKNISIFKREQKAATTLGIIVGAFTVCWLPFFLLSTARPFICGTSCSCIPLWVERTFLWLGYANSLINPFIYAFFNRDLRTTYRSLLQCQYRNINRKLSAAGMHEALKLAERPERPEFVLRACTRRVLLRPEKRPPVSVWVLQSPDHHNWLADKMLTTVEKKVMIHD
serotoninergic 5-HT6 receptor, sequence (P50406 whole entry): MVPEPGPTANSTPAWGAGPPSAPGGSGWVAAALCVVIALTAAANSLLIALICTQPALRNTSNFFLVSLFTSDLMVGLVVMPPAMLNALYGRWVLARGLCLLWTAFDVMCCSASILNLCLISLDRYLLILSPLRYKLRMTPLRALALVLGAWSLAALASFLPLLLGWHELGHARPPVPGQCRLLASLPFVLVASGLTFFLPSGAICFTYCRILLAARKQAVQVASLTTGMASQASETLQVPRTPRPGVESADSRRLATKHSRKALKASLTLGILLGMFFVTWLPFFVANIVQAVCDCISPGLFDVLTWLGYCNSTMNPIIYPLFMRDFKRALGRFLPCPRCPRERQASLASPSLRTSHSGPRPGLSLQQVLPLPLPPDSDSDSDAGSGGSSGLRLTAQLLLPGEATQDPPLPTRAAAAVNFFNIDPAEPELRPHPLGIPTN
dopaminergic D2 receptor, sequence (P14416 1-414 isoform P14416-2): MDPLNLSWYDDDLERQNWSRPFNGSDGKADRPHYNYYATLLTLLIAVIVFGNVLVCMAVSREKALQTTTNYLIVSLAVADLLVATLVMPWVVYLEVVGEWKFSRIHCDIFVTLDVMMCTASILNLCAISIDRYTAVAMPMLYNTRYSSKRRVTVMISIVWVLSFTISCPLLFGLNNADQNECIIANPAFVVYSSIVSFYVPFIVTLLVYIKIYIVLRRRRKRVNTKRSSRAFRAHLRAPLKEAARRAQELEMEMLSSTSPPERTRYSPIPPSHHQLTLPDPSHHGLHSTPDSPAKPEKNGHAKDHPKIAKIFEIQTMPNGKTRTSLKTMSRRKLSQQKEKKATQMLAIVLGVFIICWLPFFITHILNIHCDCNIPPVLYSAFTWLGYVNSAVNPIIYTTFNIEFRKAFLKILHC
dopaminergic D3 receptor, sequence (P35462 whole entry): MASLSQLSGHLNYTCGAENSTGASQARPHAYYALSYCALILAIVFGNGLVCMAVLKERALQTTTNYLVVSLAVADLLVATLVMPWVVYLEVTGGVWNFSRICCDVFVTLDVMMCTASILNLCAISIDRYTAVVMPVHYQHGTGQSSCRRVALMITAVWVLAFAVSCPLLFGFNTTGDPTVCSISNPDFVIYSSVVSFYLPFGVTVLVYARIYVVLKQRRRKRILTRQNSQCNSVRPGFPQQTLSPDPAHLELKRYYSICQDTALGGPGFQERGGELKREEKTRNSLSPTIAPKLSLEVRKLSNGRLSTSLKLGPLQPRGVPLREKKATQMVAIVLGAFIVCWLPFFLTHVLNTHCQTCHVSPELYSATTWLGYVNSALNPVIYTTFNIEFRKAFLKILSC

For `O=S(=O)(NCCCN1CCC(c2noc3cc(F)ccc23)CC1)c1ccc2c(c1)CCO2` [Compound 350, N-[3-[4-(6-Fluoro-1,2-benzoxazol-3-yl)piperidin-1-yl]propyl]-2,3-dihydrobenzofuran-5-sulphonamide], the inhibition at 1 µM in assay [1] was -5%; at dopaminergic D2 receptor it was 102%; in assay [2] it was 96%; in assay [3] it was 87%; in assay [4], 95%; on dopaminergic D3 receptor, 95%. The inhibition at 1 µM in assay [5] amounted to 57%. In addition, the “α1 [%]” value with adrenergic α1 receptor came out at 102%.

Consider `O=S(=O)(NCCCN1CCC(c2noc3cc(F)ccc23)CC1)c1ccc2c(c1)OCO2` [Compound 354, N-[3-[4-(6-Fluoro-1,2-benzoxazol-3-yl)piperidin-1-yl]propyl]-1,3-benzodioxole-5-sulphonamide], for which the inhibition at 1 µM in assay [1] is 6%; on dopaminergic D2 receptor, 83%; in assay [2], 86%; in assay [3], 96%; in assay [4], 86%; on dopaminergic D3 receptor it was 88%. In assay [5], the inhibition at 1 µM was determined as 59%. Also, the “α1 [%]” value in the assay on adrenergic α1 receptor is 103%.

Consider `CC(C)(C)c1ccc(S(=O)(=O)NCCCCN2CCN(c3nsc4ccccc34)CC2)cc1` [Compound 233, N-[4-[4-(1,2-Benzothiazol-3-yl)piperazin-1-yl]butyl]-4-tert-butyl-benzenesulphonamide], for which the inhibition at 1 µM came out at 5% in assay [1]; 83% at dopaminergic D2 receptor; 76% in assay [2]; 93% in assay [3]; 100% in assay [4]; 76% at dopaminergic D3 receptor. The inhibition at 1 µM in assay [5] amounted to 53%. The “α1 [%]” value in the assay with adrenergic α1 receptor is reported as 94%.

In the case of `O=S(=O)(NCCCCN1CCN(c2cccc3c2OCCO3)CC1)c1ccc(F)c(Cl)c1` [Compound 392, 3-Chloro-N-[4-[4-(2,3-dihydro-1,4-benzodioxin-5-yl)piperazin-1-yl]butyl]-4-fluorobenzenesulphonamide], the inhibition at 1 µM is -11% in assay [1]; 57% on dopaminergic D2 receptor; 7% in assay [2]; 91% in assay [3]; 64% in assay [4]; 93% on dopaminergic D3 receptor. The inhibition at 1 µM in assay [5] was 100%. Also, the “α1 [%]” value in the assay with adrenergic α1 receptor was 99%.

Take `O=S(=O)(NCCCCN1CCC(c2noc3cc(F)ccc23)CC1)c1ccc(OC(F)(F)F)cc1` [Compound 304, N-[4-[4-(6-Fluoro-1,2-benzoxazol-3-yl)piperidin-1-yl]butyl]-4-(trifluoromethoxy)-benzenesulphonamide]: the inhibition at 1 µM in assay [1] was 4%; at dopaminergic D2 receptor, 94%; in assay [2], 78%; in assay [3], 93%; in assay [4] it was 76%; on dopaminergic D3 receptor it was 87%. In addition, the inhibition at 1 µM in assay [5] was found to be 60%. Also, the “α1 [%]” value in the assay with adrenergic α1 receptor is reported as 101%.

With `O=S(=O)(NCCCCN1CCN(c2nsc3ccccc23)CC1)c1ccc(C(F)(F)F)cc1` [Compound 234, N-[4-[4-(1,2-Benzothiazol-3-yl)piperazin-1-yl]butyl]-4-(trifluoromethyl)benzenesulphonamide], the inhibition at 1 µM stood at 32% in assay [1]; 85% on dopaminergic D2 receptor; 62% in assay [2]; 97% in assay [3]; 92% in assay [4]; 91% at dopaminergic D3 receptor. Also, in assay [5], the inhibition at 1 µM came out at 95%. Moreover, the “α1 [%]” value in the assay on adrenergic α1 receptor amounted to 91%.

`O=C1COc2c(cccc2N2CCN(CCCCNS(=O)(=O)c3ccc(C(F)(F)F)cc3)CC2)N1` [Compound 429, N-[4-[4-(3-oxo-4H-1,4-benzoxazin-8-yl)piperazin-1-yl]butyl]-4-(trifluoromethyl)benzenesulphonamide]: the inhibition at 1 µM was 22% in assay [1]; 61% at dopaminergic D2 receptor; -57% in assay [2]; 83% in assay [3]; 35% in assay [4]; 104% on dopaminergic D3 receptor. Moreover, the inhibition at 1 µM in assay [5] is 88%. In addition, the “α1 [%]” value in the assay with adrenergic α1 receptor is 78%.

For the compound `O=S(=O)(NCCCN1CCC(c2noc3cc(F)ccc23)CC1)c1ccc(F)c(F)c1` [Compound 327, 3,4-Difluoro-N-[3-[4-(6-fluoro-1,2-benzoxazol-3-yl)piperidin-1-yl]propyl]benzenesulphonamide], the inhibition at 1 µM in assay [1] is -1%; on dopaminergic D2 receptor, 89%; in assay [2] it was 99%; in assay [3], 86%; in assay [4], 91%; on dopaminergic D3 receptor, 97%. The inhibition at 1 µM in assay [5] is 67%. Besides, the “α1 [%]” value in the assay on adrenergic α1 receptor turned out to be 109%.

For `O=S(=O)(NCCCCN1CCN(c2noc3ccccc23)CC1)c1ccc(Cl)c(Cl)c1` [Compound 93, N-[4-[4-(1,2-Benzoxazol-3-yl)piperazin-1-yl]butyl]-3,4-dichlorobenzenesulphonamide], the inhibition at 1 µM in assay [1] came out at 0%; at dopaminergic D2 receptor, 98%; in assay [2], 92%; in assay [3] it was 88%; in assay [4] it was 90%; at dopaminergic D3 receptor, 86%. The inhibition at 1 µM in assay [5] came to 48%. Besides, the “α1 [%]” value in the assay on adrenergic α1 receptor worked out at 97%.

Turning to `Cc1[nH]c2ccc(Cl)cc2c1C1=CCN(CCCNS(=O)(=O)c2cccc(Cl)c2)CC1` [Compound 138, N-[3-[4-(5-Chloro-2-methyl-1H-indol-3-yl)-3,6-dihydro-2H-pyridin-1-yl]propyl]-3-chlorobenzenesulphonamide], the inhibition at 1 µM in assay [1] was determined as 25%; on dopaminergic D2 receptor, 40%; in assay [2], 95%; in assay [3] it was 52%; in assay [4], 62%; on dopaminergic D3 receptor, 57%. Moreover, the inhibition at 1 µM in assay [5] stood at 54%. In the assay on adrenergic α1 receptor, the “α1 [%]” value came to 8%.

Take `O=S(=O)(NCCCCN1CCN(c2cccc3c2OCCO3)CC1)c1cccc(Cl)c1` [Compound 390, 3-Chloro-N-[4-[4-(2,3-dihydro-1,4-benzodioxin-5-yl)piperazin-1-yl]butyl]benzenesulphonamide]: the inhibition at 1 µM in assay [1] is -15%; at dopaminergic D2 receptor it was 61%; in assay [2], 26%; in assay [3], 66%; in assay [4], 59%; on dopaminergic D3 receptor, 81%. The inhibition at 1 µM in assay [5] turned out to be 101%. The “α1 [%]” value in the assay on adrenergic α1 receptor is recorded as 73%.

`O=S(=O)(NCCCN1CCC(c2noc3cc(F)ccc23)CC1)c1ccc(F)cc1` [Compound 326, 4-Fluoro-N-[3-[4-(6-fluoro-1,2-benzoxazol-3-yl)piperidin-1-yl]propyl]benzenesulphonamide]: the inhibition at 1 µM stood at 19% in assay [1]; 109% at dopaminergic D2 receptor; 94% in assay [2]; 94% in assay [3]; 96% in assay [4]; 99% on dopaminergic D3 receptor. Besides, the inhibition at 1 µM in assay [5] is 59%. Besides, the “α1 [%]” value in the assay with adrenergic α1 receptor was found to be 101%.

Take `O=S(=O)(NCCCCN1CCN(c2cccc3c2OCCO3)CC1)c1ccc(F)c(F)c1` [Compound 389, N-[4-[4-(2,3-Dihydro-1,4-benzodioxin-5-yl)piperazin-1-yl]butyl]-3,4-difluorobenzenesulphonamide]: the inhibition at 1 µM is 44% in assay [1]; 50% at dopaminergic D2 receptor; 19% in assay [2]; 93% in assay [3]; 56% in assay [4]; 85% on dopaminergic D3 receptor. Moreover, the inhibition at 1 µM in assay [5] is 118%. The “α1 [%]” value with adrenergic α1 receptor is listed as 93%.

As to `COc1cccc(S(=O)(=O)NCCCCN2CCN(c3nsc4ccccc34)CC2)c1` [Compound 232, N-[4-[4-(1,2-Benzothiazol-3-yl)piperazin-1-yl]butyl]-3-methoxybenzenesulphonamide], the inhibition at 1 µM in assay [1] was determined as 13%; on dopaminergic D2 receptor, 92%; in assay [2], 76%; in assay [3] it was 89%; in assay [4], 100%; at dopaminergic D3 receptor, 89%. Moreover, in assay [5], the inhibition at 1 µM was 89%. Moreover, the “α1 [%]” value in the assay with adrenergic α1 receptor came out at 94%.
